This note sets out measurements from ChEMBL document CHEMBL1914313, “Monosubstituted γ-lactam and conformationally constrained 1,3-diaminopropan-2-ol transition-state isostere inhibitors of β-secretase (BACE)” (Bioorg Med Chem Lett, 2011).

Data set [1] deals with T1, Beta-secretase 1 (Homo sapiens, UniProt P56817). In words: Inhibition of BACE1 by HPLC method.
For data set [2], the target named is T1, Beta-secretase 1. The data set is described as follows: Inhibition of BACE1 in human HEK293 cells expressing swedish mutant APP. The format is cell-based.
Data set [3] in a line: Selectivity for BACE1 over cathepsin E.
A short description of data set [4]: Selectivity for BACE1 over cathepsin D.
A short description of data set [5]: Selectivity for BACE1 over pepsin.
In data set [6] the test system is Mus musculus. In words: Antialzheimer activity in transgenic 2576 mouse assessed as reduction in plasma amyloid beta level at 30 mg/kg, sc measured after 5 hrs relative to control. The format is functional. Further details: scale not given: the % may be the effect or the level left. Conditions: route subcutaneous.
Data set [7] in a line: Drug level in plasma of transgenic 2576 mouse at 30 mg/kg, sc measured after 5 hrs. The format is ADME, organism-based. Also on record: dose 30 mg/kg, route subcutaneous.
A short description of data set [8]: Fraction unbound in plasma of transgenic 2576 mouse at 30 mg/kg, sc measured after 5 hrs. The format is ADME, organism-based. Also on record: dose 30 mg/kg, route subcutaneous.
Data set [9] has as its system Mus musculus. The data set is described as follows: Antialzheimer activity in transgenic 2576 mouse assessed as reduction in brain amyloid beta level at 30 mg/kg, sc measured after 5 hrs relative to control. The format is functional, organism-based. Also on record: dose 30 mg/kg.
Data set [10] can be described thus: Drug level in brain of transgenic 2576 mouse at 30 mg/kg, sc measured after 5 hrs. The format is ADME, organism-based. Also on record: dose 30 mg/kg, route subcutaneous. The settings on record: read-out: Drug uptake.
A short description of data set [11]: Ratio drug level in brain to plasma of transgenic 2576 mouse at 30 mg/kg, sc measured after 5 hrs. The format is ADME, organism-based. Further details: dose 30 mg/kg, route subcutaneous. Conditions: read-out: BPR.
Data set [12] concerns Rattus norvegicus. The data set is described as follows: Antialzheimer activity in CD-IGS rat assessed as reduction in plasma amyloid beta level at 30 mg/kg, ip measured after 5 hrs relative to control. The format is functional. Further details: scale not given: the % may be the effect or the level left. The settings on record: route intraperitoneal.
A short description of data set [13]: Plasma concentration in CD-IGS rat at 30 mg/kg, ip measured after 5 hrs. The format is ADME, organism-based. Further details: dose 30 mg/kg, route intraperitoneal.
Data set [14] concerns Rattus norvegicus. In words: Antialzheimer activity in CD-IGS rat assessed as reduction in brain amyloid beta level at 30 mg/kg, ip measured after 5 hrs relative to control. The format is functional. Also on record: scale not given: the % may be the effect or the level left. The settings on record: route intraperitoneal.
A short description of data set [15]: Fraction unbound in plasma of CD-IGS rat at 30 mg/kg, ip measured after 5 hrs. Further details: dose 30 mg/kg, route intraperitoneal. The format is ADME, organism-based.
Data set [16] can be described thus: Ratio drug level in brain to plasma of CD-IGS rat at 30 mg/kg, ip measured after 5 hrs. The format is ADME, organism-based. Also on record: dose 30 mg/kg, route intraperitoneal. The settings on record: read-out: BPR.
The target in data set [17] is T1, Beta-secretase 1. The data set is described as follows: Ratio of IC50 for BACE1 in human HEK293 cells expressing swedish mutant AP to IC50 for BACE1. The format is cell-based.

The source made the active and inactive calls. No cut-off for these calls is given here.

T1 sequence (P56817 whole entry): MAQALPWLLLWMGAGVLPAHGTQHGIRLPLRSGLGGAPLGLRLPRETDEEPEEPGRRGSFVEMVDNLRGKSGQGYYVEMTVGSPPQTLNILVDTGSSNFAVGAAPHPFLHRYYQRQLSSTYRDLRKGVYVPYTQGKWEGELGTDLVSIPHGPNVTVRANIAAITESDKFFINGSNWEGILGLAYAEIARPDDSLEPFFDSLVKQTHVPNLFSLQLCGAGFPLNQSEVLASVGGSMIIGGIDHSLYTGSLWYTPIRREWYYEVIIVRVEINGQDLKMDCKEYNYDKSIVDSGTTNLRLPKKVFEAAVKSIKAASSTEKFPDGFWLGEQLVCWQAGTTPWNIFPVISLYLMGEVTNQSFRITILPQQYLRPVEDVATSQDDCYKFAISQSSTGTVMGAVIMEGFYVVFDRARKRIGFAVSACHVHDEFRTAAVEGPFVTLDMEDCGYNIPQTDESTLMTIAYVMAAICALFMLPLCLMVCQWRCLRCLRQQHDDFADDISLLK

For `CCC(C)[C@@]1(NC(C)=O)CCN([C@@H](CCc2ccccc2)C(=O)N[C@@H](Cc2cc(F)cc(F)c2)[C@H](O)[C@H]2C[C@H](O)CN2)C1=O` (stereo partly drawn), the IC50 on Beta-secretase 1 [1] was determined as 0.00089 µM; against Beta-secretase 1 [2] it was 0.011 µM. Further, the Selectivity ratio in data set [3], in data set [4] and in data set [5] was 3400 each time. For the same molecule, in the data set on Mus musculus [6], the Activity is reported as 66%. Also, the concentration at 5 h in [7] was found to be 780 nM; in data set [10] it was 680 nM. For the same molecule, the fraction unbound at 5 h in data set [8] is 0.1. In the data set with Mus musculus [9], the result was inactive. The Kp at 5 h in [11] amounted to 0.87.
As for `CCCC[C@H]1CCN([C@@H](C)C(=O)N[C@@H](Cc2cc(F)cc(F)c2)[C@H](O)CNCc2cccc(OC)c2)C1=O`, the results for the IC50 against Beta-secretase 1 [1] and against Beta-secretase 1 [2] were 0.06 µM and 0.081 µM, respectively. Further, the Activity in the data set on Rattus norvegicus [12] was 26%; with Rattus norvegicus [14] it was 112%. Also, the concentration at 5 h in data set [13] came out at 1600 nM. The molecule also came in with a fraction unbound at 5 h in data set [15] of 0.029. The Kp at 5 h in data set [16] amounted to 0.18.
Take `CCCC[C@H]1CCN([C@@H](CCc2ccccc2)C(=O)N[C@@H](Cc2cc(F)cc(F)c2)[C@H](O)[C@H]2C[C@@H](OCCC)CN2)C1=O`: the 50% inhibitory concentration (IC50) at Beta-secretase 1 [1] was found to be 0.019 µM; against Beta-secretase 1 [2] it was 0.084 µM. The Activity stood at 23% in the data set on Rattus norvegicus [12] and 114% in the data set on Rattus norvegicus [14]. The concentration at 5 h in [13] is 4000 nM. In addition, the Kp at 5 h in data set [16] was determined as 0.02.
In turn, `CCCC[C@H]1CCN([C@@H](C)C(=O)N[C@@H](Cc2cc(F)cc(F)c2)[C@H](O)[C@H]2Cc3ccccc3CN2)C1=O` gave an IC50 against Beta-secretase 1 [2] of 0.72 µM. On Beta-secretase 1 [17], the Ratio IC50 was more than 10.
At Beta-secretase 1 [2], `CCCC[C@H]1CCN([C@@H](CCc2ccccc2)C(=O)N[C@@H](Cc2cc(F)cc(F)c2)[C@H](O)[C@H]2Cc3ccccc3CN2)C1=O` displayed an IC50 of 1.4 µM. The Ratio IC50 at Beta-secretase 1 [17] was more than 10.
With `CCCO[C@H]1CN[C@@H]([C@@H](O)[C@H](Cc2cc(F)cc(F)c2)NC(=O)[C@H](CCc2ccccc2)N2CC[C@](NC(C)=O)(C(C)CC)C2=O)C1` (stereo partly drawn), the IC50 on Beta-secretase 1 [1] worked out at 0.0026 µM; against Beta-secretase 1 [2], 0.0027 µM. Further, the Selectivity ratio in data set [3], in data set [4] and in [5] was 31 in each case.

As a reminder, the IC50 is the concentration at which inhibition is half-maximal. The term fraction unbound denotes free concentration divided by total concentration.
